One may read the solubility as the concentration that dissolves in the medium under given conditions. The low end stands for a poorly soluble substance, the high end for a readily soluble substance.

The values below come from US7304084B2, “6-[(4,5-Dihydro-1H-imidazol-2-yl)amino]-7-methyl-1H-benzimidazole-4-carbonitrile and its preferred salt” (The Board of Regents of the University of Nebraska, priority 2003, dated 2007).

The nature of series [1]: Solubility in water at ambient temperature (saturated solution, supernatant by quantitative HPLC). The series is classed as physicochemical. On the procedure: One such technique is to prepare a saturated solution of the salt form by shaking a suspension of the salt form in water, until a saturated solution is obtained. The saturated solution is then centrifuged and the concentration of the supernatant is determined by quantitative HPLC analysis. A suitable HPLC method is described in Example 1.

Series [2] is described as follows: Ames Test dose/response studies. In kind it is cell-based. The settings on record: impurity (2) present in compound (1) and its various salt forms. The source says:
[drawing 10] is produced in pharmaceutically unacceptable levels using these previous methods. Based on dose/response studies using an Ames Test, the mutagenic impurity (2) is shown to elicit a positive response when present at level about 1 ppm (parts per million) in 6-[(4,5-Dihydro-1H-imidazol-2-yl)amino-]-7-methyl-1H-benzimidazole-4-carbonitrile (1) and its various salt forms. Low levels of this phenazine impurity can be detected by those methods well known in the art such as HPLC with fluorescence detection. Suitable examples of such assays are described in Examples 1, 2, and 3 herein. A suitable preparation of labeled ^15N4-2,3,7-Triamino-4,6-dimethyl-1,9-phenazinedicarbonitrile is described in Example 4 herein. A suitable preparation of non-labeled 2,3,7-Triamino-4,6-dimethyl-1,9-phenazinedicarbonitrile is described in Example 19 herein. III. Methods of Making Intermediate of Formula (II)

In brackets after ≈: the same amount, converted by molar mass. Where a name gives a salt, the structure may show the parent alone. Read-outs that look alike come from different tables or passages of the source.

With `CC(=O)O.Cc1c(NC2=NCCN2)cc(C#N)c2nc[nH]c12` [Acetate Salt Form, 6-[(4,5-Dihydro-1H-imidazol-2-yl)amino-]-7-methyl-1H-benzimidazole-4-carbonitrile, Acetic Acid Salt (1:1)], in series [1], the solubility in water result is “about 135 mg/mL”. The compound `Cc1c(N=C2NCCN2)cc(C#N)c2[nH]cnc12` [Free Base Form, 6-[(4,5-Dihydro-1H-imidazol-2-yl)amino-]-7-methyl-1H-benzimidazole-4-carbonitrile] yielded a solubility in series [1] (water, thermodynamic from solid) of approximately 400 µg/mL (≈ 1660 µM).

In the case of `Cc1c(NC2=NCCN2)cc(C#N)c2nc[nH]c12` [Sulfate Salt Form, 6-[(4,5-Dihydro-1H-imidazol-2-yl)amino-]-7-methyl-1H-benzimidazole-4-carbonitrile, reference compound], the solubility in water result in series [1] (water, ambient temperature) is “about 4 mg/mL”. Regarding `Cc1c(N)cc(C#N)c2nc3c(C#N)c(N)c(N)c(C)c3nc12` [compound 2, 2,3,7-triamino-4,6-dimethyl-1,9-phenazinedicarbonitrile], in series [2], the “level of the impurity at which a positive response is elicited in the Ames Test” value is reported as “about 1 ppm”.
